From article PMC5080911 (Journal of medicinal chemistry, 2016)
Like-named read-outs stand apart in the source and are kept apart here.

Experiments:
[1] = test system: tubulin; assay: Tubulin polymerization assay; conditions: for effect on tubulin polymerization / time to reach maximum/plateau of tubulin polymerization: 3 µM; for effect on tubulin polymerization: not irradiated; for time to reach maximum/plateau of tubulin polymerization: 37 °C, monitored 1 h; for tubulin polymerization effect of irradiated sample: sample irradiated with far-red light
[2] = type: physicochemical; conditions: 10 µM in DMEM with 5% FCS, 690 nm
[3] = test system: SKOV-3 cells; assay: Stability of prodrugs with the SKOV-3 cells in the dark; type: in vitro ADME; conditions: 500 nM, 3 day incubation with SKOV-3 cells
[4] = Stability of prodrugs in the complete medium under dark conditions; type: physicochemical; conditions: 37 °C, 10 µM, 96 h
[5] = Solubility in aqueous medium; type: physicochemical; conditions: qualitative
[6] = 5.6 mW/cm^2, illumination 30 min

SMILES	effect on tubulin polymerization [1]	time to reach maximum/plateau of tubulin polymerization [1]	tubulin polymerization effect of irradiated sample [1]	PTX released from the prodrug ([2]; 5.6 mW/cm^2, illumination 10 min)	PTX released from the prodrug [2, 6]	reduction of recovered prodrug (cells + culture medium) [3] [%]	decrease (loss) of prodrug in complete medium [4]	solubility in aqueous medium [5]
COc1ccc(/C=C\c2cc(OC)c(OC)c(OC)c2)cc1O [CA4, Combretastatin A-4, reference compound]	almost completely prevented the polymerization							
CC(=O)O[C@H]1C(=O)[C@@]2(C)[C@H]([C@H](OC(=O)c3ccccc3)[C@]3(O)C[C@H](OC(=O)[C@H](OC(=O)/C=C/N4CCN(CCO[Si]5(OCCN6CCN(/C=C/C(=O)O[C@@H](C(=O)O[C@H]7C[C@@]8(O)[C@@H](OC(=O)c9ccccc9)[C@@H]9[C@]%10(OC(C)=O)CO[C@@H]%10C[C@H](O)[C@@]9(C)C(=O)[C@H](OC(C)=O)C(=C7C)C8(C)C)[C@@H](NC(=O)c7ccccc7)c7ccccc7)CC6)n6c7c8ccccc8c6/N=C6N=C(/N=c8/c9ccccc9/c(n85)=N/C5=NC(=N\7)/c7ccccc75)c5ccccc5\6)CC4)[C@@H](NC(=O)c4ccccc4)c4ccccc4)C(C)=C1C3(C)C)[C@]1(OC(C)=O)CO[C@@H]1C[C@@H]2O [Compound 4]		~ 40 min	significantly increased	about 83%	~93%	4.9	less than 7%	
CC(=O)O[C@H]1C(=O)[C@@]2(C)[C@H](O)C[C@@H]3OC[C@]3(OC(C)=O)[C@@H]2[C@@H](OC(=O)c2ccccc2)[C@]2(O)C[C@@H](OC(=O)[C@@H](OC(=O)CCC(=O)N3CCN(CCO[Si]4(OCCN5CCN(C(=O)CCC(=O)O[C@@H](C(=O)O[C@@H]6C[C@@]7(O)[C@H](OC(=O)c8ccccc8)[C@H]8[C@@]9(OC(C)=O)CO[C@H]9C[C@@H](O)[C@]8(C)C(=O)[C@H](OC(C)=O)C(=C6C)C7(C)C)[C@H](NC(=O)c6ccccc6)c6ccccc6)CC5)n5c6c7ccccc7c5/N=C5N=C(/N=c7/c8ccccc8/c(n74)=N/C4=NC(=N\6)/c6ccccc64)c4ccccc4\5)CC3)[C@H](NC(=O)c3ccccc3)c3ccccc3)C(C)=C1C2(C)C (stereo partly shown) [Compound 5]		~ 40 min	not much change		could not detect PTX	3.1		lower solubility in aqueous medium than 4
CC(=O)O[C@H]1C(=O)[C@@]2(C)[C@H]([C@H](OC(=O)c3ccccc3)[C@]3(O)C[C@H](OC(=O)[C@H](O)[C@@H](NC(=O)c4ccccc4)c4ccccc4)C(C)=C1C3(C)C)[C@]1(OC(C)=O)CO[C@@H]1C[C@@H]2O [PTX, Paclitaxel, reference compound]	the tubulin polymerization was rapid							
